pIC50: −log10 of the molar value. A value given as a limit tells only on which side of the number the result lay.

The source of these data is ChEMBL document CHEMBL1153244, “Tetrasubstituted pyridines as potent and selective AKT inhibitors: Reduced CYP450 and hERG inhibition of aminopyridines” (Bioorg Med Chem Lett, 2010).

For data set [1], the target named is RAC-gamma serine/threonine-protein kinase (Homo sapiens, UniProt Q9Y243). Kind of data set: Inhibition of human AKT3.
The next data set addresses Cytochrome P450 3A4 (Homo sapiens, UniProt P08684). Kind of data set: Inhibition of CYP3A4. In kind it is ADME.
For another data set, the system named is BT-474. Kind of data set: Antiproliferative activity against human BT474 cells. In kind it is functional, cell-based.
Data set [2] addresses RAC-alpha serine/threonine-protein kinase (Homo sapiens, UniProt P31749). As to the kind of experiment: Inhibition of human AKT1.
Data set [3] deals with RAC-beta serine/threonine-protein kinase (Homo sapiens, UniProt P31751). As to the kind of experiment: Inhibition of human AKT2.
Data set [4] addresses T1, Voltage-gated inwardly rectifying potassium channel KCNH2 (Homo sapiens, UniProt Q12809). As to the kind of experiment: Inhibition of human ERG relative to control.
Data set [5] has as its system Rhesus monkey. Kind of data set: Dose normalized AUC (0 to t) in monkey at 3.0 mg, iv. The data set is classed as ADME, organism-based, Macaca mulatta. Conditions: in vivo.
Data set [6] has as its system Canis familiaris. Kind of data set: Dose normalized AUC (0 to t) in dog at 3.1 mg, iv. Conditions: in vivo. The data set is classed as ADME, organism-based, Canis lupus familiaris.
Data set [7] in a line: Clearance in dog at 3.1 mg, iv. The data set is classed as ADME, organism-based, Canis lupus familiaris. Conditions: in vivo.
Data set [8] relates to Mus musculus. Kind of data set: Antitumor activity against human BT474 cells xenografted in ip dosed mouse assessed as inhibition of tumor growth. Conditions: BT-474.
A short description of data set [9]: Clearance in mouse at 2.2 mg, iv. Conditions: in vivo. In kind it is ADME, organism-based.
The test system of data set [10] is Mus musculus. As to the kind of experiment: Antitumor activity against human BT474 cells xenografted in mouse assessed as reduction in tumor volume at 30 mg/kg, ip. Details: scale not given: the % may be the effect or the level left. Conditions: route intraperitoneal.
Data set [11] is described as follows: Clearance in monkey at 3.0 mg, iv. The data set is classed as ADME, organism-based, Macaca mulatta. Conditions: rhesus monkey, in vivo.
For data set [12], the system named is Rattus norvegicus. Kind of data set: Dose normalized AUC (0 to t) in rat at 2.4 mg, iv. Conditions: in vivo. In kind it is ADME, organism-based.
Data set [13] can be described thus: Clearance in rat at 2.4 mg, iv. The data set is classed as ADME, organism-based. Conditions: in vivo.
The target of data set [14] is T1, Voltage-gated inwardly rectifying potassium channel KCNH2. As to the kind of experiment: Inhibition of human ERG.
Data set [15] has as its system Mus musculus. Kind of data set: Dose normalized AUC (0 to t) in mouse at 2.2 mg, iv. In kind it is ADME, organism-based. Conditions: in vivo.
Data set [16] deals with Rattus norvegicus. As to the kind of experiment: Dose normalized AUC (0 to t) in rat at 10.6 mg, iv. The data set is classed as ADME, organism-based. Conditions: in vivo.
A short description of data set [17]: Clearance in monkey at 3.1 mg, iv. The data set is classed as ADME, organism-based, Macaca mulatta. Conditions: rhesus monkey, in vivo.
Data set [18] deals with Rhesus monkey. Kind of data set: Dose normalized AUC (0 to t) in monkey at 3.1 mg, iv. In kind it is ADME, organism-based, Macaca mulatta. Conditions: in vivo.
Data set [19] has as its system Mus musculus. As to the kind of experiment: Dose normalized AUC (0 to t) in mouse at 9.6 mg, ip. In kind it is ADME, organism-based. Conditions: in vivo.
The test system of data set [20] is Canis familiaris. Kind of data set: Dose normalized AUC (0 to t) in dog at 2.4 mg, iv. Conditions: in vivo. The data set is classed as ADME, organism-based, Canis lupus familiaris.
Data set [21] is described as follows: Clearance in dog at 2.4 mg, iv. The data set is classed as ADME, organism-based, Canis lupus familiaris. Conditions: in vivo.
Data set [22] can be described thus: Clearance in rat at 10.6 mg, iv. The data set is classed as ADME, organism-based. Conditions: in vivo.

Chain of RAC-alpha serine/threonine-protein kinase (P31749 whole entry): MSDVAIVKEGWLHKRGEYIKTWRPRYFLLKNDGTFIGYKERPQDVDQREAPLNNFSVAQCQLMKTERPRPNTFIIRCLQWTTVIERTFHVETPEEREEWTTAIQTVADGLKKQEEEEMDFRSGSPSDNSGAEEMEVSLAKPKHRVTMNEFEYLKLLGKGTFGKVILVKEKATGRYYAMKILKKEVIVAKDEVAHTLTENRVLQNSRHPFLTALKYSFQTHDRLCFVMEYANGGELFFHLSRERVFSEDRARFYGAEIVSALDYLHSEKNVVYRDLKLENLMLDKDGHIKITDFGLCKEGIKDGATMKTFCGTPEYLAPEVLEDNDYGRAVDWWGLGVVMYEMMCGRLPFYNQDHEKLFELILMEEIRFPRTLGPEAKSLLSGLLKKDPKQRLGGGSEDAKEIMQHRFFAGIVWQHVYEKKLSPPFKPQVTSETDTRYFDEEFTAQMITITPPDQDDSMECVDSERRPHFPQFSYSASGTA
Chain of Cytochrome P450 3A4 (P08684 whole entry): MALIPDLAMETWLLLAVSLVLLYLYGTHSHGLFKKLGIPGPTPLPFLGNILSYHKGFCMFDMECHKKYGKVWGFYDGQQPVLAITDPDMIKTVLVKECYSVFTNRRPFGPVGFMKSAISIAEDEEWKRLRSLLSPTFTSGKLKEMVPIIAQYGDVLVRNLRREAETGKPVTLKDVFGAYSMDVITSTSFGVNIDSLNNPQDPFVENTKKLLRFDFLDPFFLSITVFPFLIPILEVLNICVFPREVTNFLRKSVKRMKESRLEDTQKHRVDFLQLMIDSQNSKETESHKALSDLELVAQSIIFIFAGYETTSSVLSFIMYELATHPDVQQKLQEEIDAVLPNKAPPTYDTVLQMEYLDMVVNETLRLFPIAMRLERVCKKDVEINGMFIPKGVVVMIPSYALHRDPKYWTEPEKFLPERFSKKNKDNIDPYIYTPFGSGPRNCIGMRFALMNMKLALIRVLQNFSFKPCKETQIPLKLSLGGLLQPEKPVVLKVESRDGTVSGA
Chain of RAC-gamma serine/threonine-protein kinase (Q9Y243 whole entry): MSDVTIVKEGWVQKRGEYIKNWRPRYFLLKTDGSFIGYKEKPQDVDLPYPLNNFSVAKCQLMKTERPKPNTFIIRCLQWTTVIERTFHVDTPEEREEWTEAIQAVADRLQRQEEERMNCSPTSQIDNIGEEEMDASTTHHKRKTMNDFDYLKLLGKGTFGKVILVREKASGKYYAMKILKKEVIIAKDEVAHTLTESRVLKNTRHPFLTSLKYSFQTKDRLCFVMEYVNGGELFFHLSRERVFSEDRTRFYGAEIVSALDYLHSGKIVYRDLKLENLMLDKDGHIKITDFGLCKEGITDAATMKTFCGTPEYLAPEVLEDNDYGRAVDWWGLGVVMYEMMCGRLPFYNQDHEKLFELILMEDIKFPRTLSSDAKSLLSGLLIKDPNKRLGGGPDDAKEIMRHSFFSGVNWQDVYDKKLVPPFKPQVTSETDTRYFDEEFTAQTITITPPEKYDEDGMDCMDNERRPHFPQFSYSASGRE
Chain of RAC-beta serine/threonine-protein kinase (P31751 whole entry): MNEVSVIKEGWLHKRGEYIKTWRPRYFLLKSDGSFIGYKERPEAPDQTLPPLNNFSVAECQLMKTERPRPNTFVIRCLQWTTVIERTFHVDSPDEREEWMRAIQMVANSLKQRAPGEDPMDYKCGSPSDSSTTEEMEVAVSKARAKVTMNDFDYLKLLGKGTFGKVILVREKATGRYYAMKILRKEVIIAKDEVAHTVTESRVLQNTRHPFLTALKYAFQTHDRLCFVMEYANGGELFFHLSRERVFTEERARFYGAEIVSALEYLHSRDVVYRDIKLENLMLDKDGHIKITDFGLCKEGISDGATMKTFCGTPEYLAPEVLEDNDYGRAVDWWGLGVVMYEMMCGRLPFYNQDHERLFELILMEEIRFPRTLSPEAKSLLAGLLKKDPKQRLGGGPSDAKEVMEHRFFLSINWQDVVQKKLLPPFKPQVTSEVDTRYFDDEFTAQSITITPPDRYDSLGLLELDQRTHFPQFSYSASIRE
T1 sequence (Q12809 whole entry): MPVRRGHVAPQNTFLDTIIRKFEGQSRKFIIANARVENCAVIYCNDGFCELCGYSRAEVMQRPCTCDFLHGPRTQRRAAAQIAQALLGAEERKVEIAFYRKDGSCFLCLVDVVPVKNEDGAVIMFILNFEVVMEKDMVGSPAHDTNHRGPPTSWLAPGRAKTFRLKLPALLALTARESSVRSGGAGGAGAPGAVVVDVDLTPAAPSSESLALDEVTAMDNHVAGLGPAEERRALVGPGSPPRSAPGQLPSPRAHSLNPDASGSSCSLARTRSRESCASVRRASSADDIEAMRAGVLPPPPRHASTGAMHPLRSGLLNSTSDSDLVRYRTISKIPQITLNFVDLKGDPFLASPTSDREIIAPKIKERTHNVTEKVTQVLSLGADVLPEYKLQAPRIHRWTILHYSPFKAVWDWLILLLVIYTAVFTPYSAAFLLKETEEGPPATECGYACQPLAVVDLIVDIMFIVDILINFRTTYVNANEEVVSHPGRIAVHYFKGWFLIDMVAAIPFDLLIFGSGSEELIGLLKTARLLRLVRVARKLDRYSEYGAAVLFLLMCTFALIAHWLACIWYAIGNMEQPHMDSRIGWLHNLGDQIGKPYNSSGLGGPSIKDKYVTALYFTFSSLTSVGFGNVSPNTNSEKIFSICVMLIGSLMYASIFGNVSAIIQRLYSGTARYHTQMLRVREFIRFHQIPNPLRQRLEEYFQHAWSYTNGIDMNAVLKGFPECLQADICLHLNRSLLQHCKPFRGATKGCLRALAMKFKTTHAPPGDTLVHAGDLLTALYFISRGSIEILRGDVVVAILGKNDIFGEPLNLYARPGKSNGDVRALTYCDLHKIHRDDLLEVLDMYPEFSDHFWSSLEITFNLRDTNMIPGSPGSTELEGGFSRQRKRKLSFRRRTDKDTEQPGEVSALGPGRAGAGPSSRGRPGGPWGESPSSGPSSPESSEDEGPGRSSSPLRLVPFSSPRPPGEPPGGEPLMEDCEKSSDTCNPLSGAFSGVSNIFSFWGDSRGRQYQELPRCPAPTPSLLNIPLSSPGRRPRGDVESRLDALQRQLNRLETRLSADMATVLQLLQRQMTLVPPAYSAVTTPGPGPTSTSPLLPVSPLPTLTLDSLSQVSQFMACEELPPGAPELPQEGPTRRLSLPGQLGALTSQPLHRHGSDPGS

For the molecule `Cc1occc1-c1nc(N)c(OC[C@@H](N)Cc2c[nH]c3ccccc23)cc1-c1ccc2[nH]nc(C)c2c1`, the pIC50 was 9.00 in data set [1]; 7.00 against Cytochrome P450 3A4; 6.70 with BT-474; 8.52 in data set [2]; 7.82 in [3].

Turning to `Cc1occc1-c1nc(N)c(OC[C@@H](N)Cc2c(Cl)[nH]c3ccccc23)cc1-c1cnc2[nH]nc(C)c2n1`, the pIC50 in data set [1] was 8.70; at Cytochrome P450 3A4, 6.30; in the data set with BT-474, 6.82; in data set [2] it was 9.00; in data set [3] it was 7.92.

Regarding `Cc1occc1-c1ncc(OC[C@@H](N)Cc2c[nH]c3ccccc23)cc1-c1cnc2[nH]nc(C)c2n1`, the pIC50 against Cytochrome P450 3A4 was 6.20; in the data set on BT-474, 6.54; in data set [2], 9.00; in data set [3], 7.60. For the same molecule, in data set [4], the “inhibition (INH)” value turned out to be 83.4%.

For the molecule `Cc1occc1-c1nc(N)c(OC[C@@H](N)Cc2c[nH]c3ccccc23)cc1-c1cnc2[nH]nc(C)c2c1`, the pIC50 in data set [1] is 8.70; against Cytochrome P450 3A4, 6.00; in the data set on BT-474, 6.33; in data set [2], 9.00; in data set [3] it was 7.82.

As to `Cc1occc1-c1nc(N)c(OC[C@@H](N)Cc2c[nH]c3ccccc23)cc1-c1cnc2[nH]nc(C)c2n1`, the AUC in the data set on Rhesus monkey [5] turned out to be 853 ng·h/mL/mg; with Canis familiaris [6], 630 ng·h/mL/mg; in the data set with Rattus norvegicus [12], 303 ng·h/mL/mg; in the data set with Mus musculus [15], 170 ng·h/mL/mg. Besides, the pIC50 in data set [1] was 8.70; against Cytochrome P450 3A4 it was 5.30; in the data set on BT-474 it was 6.51; in data set [14] it was 4.98; in [2], 9.00; in [3], 7.72. Besides, the clearance in data set [7] was found to be 25.3 mL/min/kg; in data set [9], 98.9 mL/min/kg; in [11], 22.3 mL/min/kg; in [13] it was 46 mL/min/kg. In addition, the Activity result was “Dose-dependent effect” in the data set with Mus musculus [8] and 59% in the data set on Mus musculus [10]. For the same molecule, the “inhibition (INH)” value in [4] is 95%.

On to `Cc1occc1-c1nc(N)c(OC[C@@H](N)Cc2ccccc2)cc1-c1cnc2[nH]nc(C)c2n1`, for which the pIC50 is 8.22 in data set [1]; 5.49 at Cytochrome P450 3A4; 6.24 in the data set with BT-474; 8.22 in [2]; 6.89 in data set [3].

With `Cc1n[nH]c2ncc(-c3cc(OC[C@@H](N)Cc4c[nH]c5ccccc45)c(C#N)nc3-c3ccoc3)nc12`, the pIC50 in data set [1] is 7.72; at Cytochrome P450 3A4 it was 6.10; in [2], 8.00; in data set [3], 6.60.

Turning to `Cc1occc1-c1nc(N)c(OC[C@@H](N)Cc2c[nH]c3ccccc23)cc1-c1cc2c(C)n[nH]c2cn1`, the pIC50 was 8.52 in data set [1]; 5.89 against Cytochrome P450 3A4; 6.52 in the data set with BT-474; 9.00 in data set [2]; 7.89 in [3].

Take `Cc1n[nH]c2ncc(-c3cc(OC[C@@H](N)Cc4c[nH]c5ccccc45)cnc3-c3ccoc3)nc12`: the AUC with Rattus norvegicus [16] worked out at 301 ng·h/mL/mg; in the data set with Rhesus monkey [18] it was 386 ng·h/mL/mg; in the data set on Mus musculus [19], 96 ng·h/mL/mg; with Canis familiaris [20] it was 425 ng·h/mL/mg. Besides, the clearance in [17] turned out to be 39.1 mL/min/kg; in data set [21], 34.4 mL/min/kg; in data set [22], 53.2 mL/min/kg.

As for `CCNc1nc(-c2ccoc2)c(-c2cnc3[nH]nc(C)c3n2)cc1OC[C@@H](N)Cc1ccccc1`, the pIC50 in data set [1] was 6.30; at Cytochrome P450 3A4 it was 5.30; in the data set on BT-474, 5.41; in [2], 6.30; in data set [3], 5.20.

As to `Cc1nc(-c2ccoc2)c(-c2cnc3[nH]nc(C)c3n2)cc1OC[C@@H](N)Cc1c[nH]c2ccccc12`, the pIC50 in [1] was 8.00; on Cytochrome P450 3A4 it was 6.20; in the data set with BT-474 it was 5.90; in data set [2], 8.52; in data set [3], 7.20.

Regarding `Cc1occc1-c1nc(N)c(OC[C@@H](N)Cc2c(C#N)[nH]c3ccccc23)cc1-c1cnc2[nH]nc(C)c2n1`, the pIC50 is 9.00 in [1]; 5.80 against Cytochrome P450 3A4; 5.55 with BT-474; 9.00 in [2]; 8.15 in data set [3].

On to `Cc1occc1-c1nc(N)c(OC[C@@H](N)Cc2c(C(N)=O)[nH]c3ccccc23)cc1-c1cnc2[nH]nc(C)c2n1`, for which the pIC50 in data set [1] was 9.00; in the data set with BT-474 it was less than 5.00; in data set [2] it was 9.00; in [3], 7.82.
